# Reference: patent US7538116B2, “Treatment of sexual disorders” (priority 2003, dated 2009)
# Legend:
# Assay type in all cases: in vivo, human
# subjects with depression = assay: DISF interview, short-term investigation in depression (134004); conditions: trial 134004; for mean change from baseline in total score (DISF interview): short-term treatment
# Protocol: (§1) Sexual dysfunction and recovery were measured with the Derogatis Interview for Sexual Functioning (DISF/DISF-SR). This provides for a coordinated set of brief matched instruments designed to provide an estimate of the quality of an individual's current sexual functioning. The DISF is a semi-structured interview comprising 25 items and reflecting quality of sexual functioning in a multi-domain format. The DISF-SR is a matching Self-Report (SR) inventory designed to accomplish the same goal in a patient self-report mode. There are gender specific male and female versions of both the DISF and the DISF-SR. All instruments in the DISF series are designed to be interpreted at three distinct levels: Discrete Items, Functional Domains, and aggregate summary (Total Score). The Discrete Items are arranged into five primary Functional Domains of sexual functioning: (I) sexual cognition/fantasy, (II) sexual arousal, (III) sexual behavior/experience, (IV) orgasm, and (V) sexual drive/relationship. Both the DISF and the DISF-SR take approximately 12 to 15 minutes to administer. Internal consistency reliabilities for domain scores of the DISF-SR range from 0.70 to 0.77, while test-retest stability coefficients are 0.80 to 0.90 and 0.86 for the Total Score. Inter-rater reliability estimates for the DISF interview ranged from 0.84 to 0.92 for domain scores, and 0.91 for the Total. […] The DISF/DISF-SR is currently available in 10 foreign languages.
# (§2) The Derogatis Interview was used, providing information on the quality of the subject's sexual functioning in quantitative terms. Only subjects who were willing to discuss their sexual functioning with the investigator were to be included. In addition, the scores from the interview, as well as demographic and medical history information, were to be used by the investigator to determine whether or not the subject reached the threshold of disorder (absent or present) for the primary criteria for the DSM-IV Sexual Disorders.
# DISF interview data from the analysis of another investigation of gepirone in depression (Organon internal reference number: 134004) were analyzed. […] Upon analysis of change from baseline in total score only for each domain for females and Domains I to III for males, similar conclusions for subjects who received gepirone and fluoxetine could be drawn.
# [1] = tested on: subjects from trial 134004; assay: DISF interview, long-term trial 134502 (continued or switched therapy)
# Protocol: as §1, §2
# In another study (Organon's Internal reference number 134501), all subjects received gepirone ER (40 mg) after having completed a trial wherein subjects were randomized to receive either gepirone ER or placebo. DISF-SR data from the analysis of this long-term trial were analyzed. For females, data were available for 23 subjects who received gepirone in a previous trial (Organon internal reference: 134001 or 134002) previously (henceforth referred to as gepirone in this paragraph) and 23 subjects who received placebo previously (henceforth referred to as placebo in this paragraph). […] For males, data were available for 17 subjects who received gepirone and 17 subjects who received placebo. […] DISF Interview data from the analysis of another long-term trial (Organon internal reference: 134502) were analyzed. In this trial subjects from a previous trial (Organon internal reference:134004) were continued on therapy or were switched to a new drug, depending on antidepressant response.
# depressed outpatients = assay: DISF-SR, combined analysis of two short-term investigations (134001 and 134002); conditions: short-term treatment (2 months), 134001 and 134002 combined
# Protocol: Sexual dysfunction and recovery were measured with the Derogatis Interview for Sexual Functioning (DISF/DISF-SR). This provides for a coordinated set of brief matched instruments designed to provide an estimate of the quality of an individual's current sexual functioning. The DISF is a semi-structured interview comprising 25 items and reflecting quality of sexual functioning in a multi-domain format. The DISF-SR is a matching Self-Report (SR) inventory designed to accomplish the same goal in a patient self-report mode. There are gender specific male and female versions of both the DISF and the DISF-SR. All instruments in the DISF series are designed to be interpreted at three distinct levels: Discrete Items, Functional Domains, and aggregate summary (Total Score). The Discrete Items are arranged into five primary Functional Domains of sexual functioning: (I) sexual cognition/fantasy, (II) sexual arousal, (III) sexual behavior/experience, (IV) orgasm, and (V) sexual drive/relationship. Both the DISF and the DISF-SR take approximately 12 to 15 minutes to administer. […]
# The Derogatis Interview was used, providing information on the quality of the subject's sexual functioning in quantitative terms. […]
# DISF-SR data from the combined analysis of two investigations of gepirone in depressed outpatients (Organon internal reference: 134001 and 134002) were analyzed. […]
# depressed patients = assay: Specific case descriptions, long-term open-label study
# Description: In another trial patients were enrolled in a long-term open-label study of depressed patients. […] It was observed that most of the reports were from patients in long-term therapy who had recovered from their depression weeks to months before making the reports. These reports provided incidental observations on both men and women of various ages that sexual desire had increased to a level not previously experienced by the subject and which was quite pleasing to them. It appeared that these patients were no longer depressed and now had the added benefit that sexual function, sexual relationships, and quality of life were improved beyond that experienced by patients merely recovering from depression. […] They were pursuing a dating life for the first time in years. […] They were not depressed anymore and the sexual effects continued to increase. […] They were successful and carried out a satisfying sexual relationship for the fist time since the death of their spouse. They were reported to be “giddy” over the effects of gepirone in this domain. Their quality of life was judged as much improved by the investigator.
# [2] = tested on: subjects in remission from depression; assay: DISF total score, longer-term trial 28709 (randomized after remission); conditions: for mean change from baseline in total score (DISF): gepirone HCl ER 40 mg, randomized after remission
# Protocol: as §1
# as §2, with “Disorders. […]” for “Disorders.”
# [3] = tested on: subjects from trials 134001 or 134002; assay: DISF-SR, long-term trial 134501 (all subjects on gepirone ER); conditions: then gepirone ER 40 mg
# Protocol: as §1, §2
# In another study (Organon's Internal reference number 134501), all subjects received gepirone ER (40 mg) after having completed a trial wherein subjects were randomized to receive either gepirone ER or placebo. DISF-SR data from the analysis of this long-term trial were analyzed. For females, data were available for 23 subjects who received gepirone in a previous trial (Organon internal reference: 134001 or 134002) previously (henceforth referred to as gepirone in this paragraph) and 23 subjects who received placebo previously (henceforth referred to as placebo in this paragraph). […] DISF Interview data from the analysis of another long-term trial (Organon internal reference: 134502) were analyzed. […]
# [4] = males, same treatment throughout short-term (134004) and long-term (134502) trials
smiles,measurement,setting,value
CNCCC(Oc1ccc(C(F)(F)F)cc1)c1ccccc1 (centres unmarked) [fluoxetine],mean change from baseline in total score (DISF interview),subjects with depression; females,−3.5
same,mean change from baseline in total score (DISF interview),subjects with depression; males,−4.4
same,mean change from baseline in total score (DISF interview),"[1]; females, switched from gepirone to fluoxetine, trial 134502",+0.9
same,mean change from baseline in total score (DISF interview),[1]; [4],−1.2
same,mean change from baseline in total score (DISF interview),"[1]; males, switched from gepirone to fluoxetine, trial 134502",−5.8
"CC1(C)CC(=O)N(CCCCN2CCN(c3ncccn3)CC2)C(=O)C1 [gepirone, 4,4-dimethyl-1-[4-[4-(2-pyrimidinyl)-1-piperazinyl]butyl]-2,6-piperidinedione]",mean change from baseline in total score (DISF-SR),depressed outpatients; females,+8.0
same,mean change from baseline in total score (DISF-SR),depressed outpatients; males,+13.7
same,mean change from baseline in total score (DISF interview),subjects with depression; females,+4.3
same,mean change from baseline in total score (DISF interview),subjects with depression; males,0
same,change from baseline in total score for Domains IV (orgasm) and V (sexual drive/relationship),subjects with depression; males,improvement in total score from baseline
same,quality of life judged by the investigator (case report),depressed patients; patient,much improved
same,orgasms (case report),"depressed patients; person on open-label therapy, no longer depressed",more frequent and more intense
same,libido (case report),"depressed patients; person, on gepirone for nearly a year",libido was up
same,mean change from baseline in total score (DISF),[2]; females,+5.2
same,"Domains IV (orgasm) and V (sexual drive/relationship), total score from baseline",[2]; males,improvement in total score from baseline
same,mean change from baseline in total score (DISF),[2]; males,+18.7
same,mean change from baseline in total score (DISF-SR),"[3]; females, gepirone in previous trial",+11.2
same,mean change from baseline in total score (DISF-SR),"[3]; females, placebo in previous trial",+3.3
same,mean change from baseline in total score (DISF-SR),"[3]; males, gepirone in previous trial",+12.3
same,mean change from baseline in total score (DISF-SR),"[3]; males, placebo in previous trial",−4.4
same,mean change from baseline in total score (DISF interview),"[1]; females, same treatment throughout short-term (134004) and long-term (134502) trials",+18.1
same,mean change from baseline in total score (DISF interview),"[1]; females, switched from fluoxetine to gepirone, trial 134502",+2.3
same,mean change from baseline in total score (DISF interview),"[1]; females, switched from placebo to gepirone, trial 134502",+4.2
same,mean change from baseline in total score (DISF interview),[1]; [4],+5.5
same,mean change from baseline in total score (DISF interview),"[1]; males, switched from fluoxetine to gepirone, trial 134502",+3.3
same,mean change from baseline in total score (DISF interview),"[1]; males, switched from placebo to gepirone, trial 134502",+7.1
